From patent publication US10570140B2, “Selective inhibitors of protein arginine methyltransferase 5 (PRMT5)” (Prelude Therapeutics, Incorporated, priority 2017, dated 2020)

How the values were obtained:
[1] = molecular target: PRMT5/MEP50 complex (Homo sapiens (Human), UniProt O14744); test: PRMT5 biochemical assay (3H-SAM filter plate, histone H2A substrate); details: PRMT5/MEP50 5 nM, histone H2A 5 μM, SAM 1 μM; read-out: PRMT5 IC50
Experimental: Biochemical Assay Protocol
Compounds were solubilized and 3-fold diluted in 100% DMSO. […] Standard reactions were performed in a total volume of 50 μl in assay buffer, with histone H2A (5 μM final) as substrate. To this was added the PRMT5/MEP50 complex diluted to provide a final assay concentration of 5 nM and the compounds were allowed to preincubate for 15 to 20 minutes at room temperature. The reaction was initiated by adding S-[3H-methyl]-adenosyl-L-methionine (PerkinElmer) to final concentration of 1 μM. Following a 60 minutes incubation at 30° C., the reaction was stopped by adding 100 μL of 20% TCA. Each reaction was spotted onto filter plate (MultiScreen FB Filter Plate, Millipore), and washed 5 times with PBS buffer, Scintillation fluid was added to the filter plate and read in a scintillation counter. IC50 values were determined by fitting the data to the standard 4 parameters with Hill Slope using GraphPad Prism software.

[2] = system: sDMA; test: Western blot for symmetric di-methyl arginine (sDMA) IC50 in Granta cells; type: cell-based; details: Homo sapiens, 72 h; Granta-519 cell line, 3 days
[3] = system: Granta-519 cells; test: Cell proliferation assay on Granta-519 cells (CCK-8, day 10); type: cell-based; details: Homo sapiens, 240 h, Granta-519 cell line, read-out: Prolif. IC50
Experimental: Cell Proliferation Assay to Determine IC50 on Granta-519 Cells
Granta-519 cells were maintained in PRMI 1640 (Corning Cellgro, Catalog #: 10-040-CV) medium supplemented with 10% v/v FBS (GE Healthcare, Catalog #: SH30910.03). Compounds were dissolved in DMSO to make 10 mM stocks and stored at −20° C. Nine-point, 3-fold serial dilutions were made with DMSO with top concentration at 1 mM (working stocks).
On day of experiment, compound working stocks were further diluted at 1:50 with fresh medium in 96 well plate, and 10 μL of diluted drugs were added to a new 96 well plate for proliferation assay. Cells growing at exponential phase were spun down at 1500 rpm for 4 min and resuspend in fresh medium to reach a density of 0.5×10^6 cells/ml. 200 ul of cells were added to 96 well plate containing diluted drugs and incubated for 3 days. DMSO was used a vehicle control.
One day 3, 10 μL of Cell Counting Kit-8 (CCK-8, Jojindo, CK04-13) solution was added to a new 96 well plate. Cells incubated with drugs for 3 days were resuspended by pipetting up and down, and 100 μL of cells were transferred to 96 well plate containing CCK-8 reagent to measure viable cells. Plates were incubated in CO2 incubator for 2 hours and OD450 values were measured with a microplate reader (iMark microplate reader, Bio-Rad).
For re-plating, compound working stocks were diluted at 1:50 with fresh medium and 10 μL of diluted drugs were added to a new 96 well plate. Cells from Day 3 plate (50 ul) were added to 96 well plate containing fresh drug and additional 150 μL of fresh medium was added to reach 200 μL volume. Plate was returned to CO2 incubator and incubated for 3 more days. Viable cells measurement and re-plating were repeated on day 6, and the final viable cells measurement was taken on day 10.
Percentage of viable cells, relative to DMSO vehicle control, were calculated and plotted in Graphpad Prism ([Inhibitor] vs. normalized response−Variable slope) to determine proliferation IC50 values on day 10.

PRMT5/MEP50 complex, sequence (O14744 whole entry): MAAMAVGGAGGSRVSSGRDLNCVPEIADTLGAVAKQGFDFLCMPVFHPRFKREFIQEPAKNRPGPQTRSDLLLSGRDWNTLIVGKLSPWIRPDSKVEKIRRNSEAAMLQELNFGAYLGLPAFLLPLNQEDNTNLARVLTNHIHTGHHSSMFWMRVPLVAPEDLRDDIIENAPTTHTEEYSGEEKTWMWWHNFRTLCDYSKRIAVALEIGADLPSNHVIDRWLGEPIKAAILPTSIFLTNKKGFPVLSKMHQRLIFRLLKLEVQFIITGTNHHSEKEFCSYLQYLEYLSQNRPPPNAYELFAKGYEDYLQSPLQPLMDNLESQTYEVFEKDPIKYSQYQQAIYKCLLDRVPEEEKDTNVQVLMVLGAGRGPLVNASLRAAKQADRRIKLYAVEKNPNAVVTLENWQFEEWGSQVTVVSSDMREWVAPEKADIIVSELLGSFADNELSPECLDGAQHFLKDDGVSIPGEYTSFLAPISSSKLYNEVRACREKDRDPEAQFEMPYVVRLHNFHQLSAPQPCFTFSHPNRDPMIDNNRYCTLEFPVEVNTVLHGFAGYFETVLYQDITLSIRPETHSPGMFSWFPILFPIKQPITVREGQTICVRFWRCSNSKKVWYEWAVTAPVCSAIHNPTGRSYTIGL
PRMT5/MEP50 complex, sequence (Q9BQA1 whole entry partner): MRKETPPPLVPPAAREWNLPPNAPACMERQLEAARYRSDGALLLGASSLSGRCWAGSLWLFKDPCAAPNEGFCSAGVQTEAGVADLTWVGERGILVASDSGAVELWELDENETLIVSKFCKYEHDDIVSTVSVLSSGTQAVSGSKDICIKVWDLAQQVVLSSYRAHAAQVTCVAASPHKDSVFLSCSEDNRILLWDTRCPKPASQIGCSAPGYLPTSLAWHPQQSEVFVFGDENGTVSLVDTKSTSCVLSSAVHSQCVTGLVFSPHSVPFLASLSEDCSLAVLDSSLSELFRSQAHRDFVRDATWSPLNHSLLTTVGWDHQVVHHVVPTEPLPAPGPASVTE

Row | Compound | IC50 [1] | IC50 [2] | IC50 [3]
1 | C[C@@]1(O)[C@@H](COc2ccc3ccc(N)nc3c2)O[C@@H](n2ccc3c(N)ncnc32)[C@@H]1O [Example 1, (2R,3S,4R,5R)-5-(4-amino-7H-pyrrolo[2,3-d]pyrimidin-7-yl)-2-(((2-aminoquinolin-7-yl)oxy)methyl)-3-methyltetrahydrofuran-3,4-diol] | 0.75 nM | 15 nM | 40 nM
2 | C[C@@]1(O)[C@@H](COc2ccc3ccc(N)nc3c2)O[C@@H](n2cc(F)c3c(N)ncnc32)[C@@H]1O [Example 6, (2R,3S,4R,5R)-5-(4-amino-5-fluoro-7H-pyrrolo[2,3-d]pyrimidin-7-yl)-2-(((2-aminoquinolin-7-yl)oxy)methyl)-3-methyltetrahydrofuran-3,4-diol] | 0.85 nM | 1 nM | 30 nM
3 | C[C@@]1(O)[C@@H](COc2ccc3cc(Br)c(N)nc3c2)O[C@@H](n2ccc3c(N)ncnc32)[C@@H]1O [Example 12, (2R,3S,4R,5R)-2-(((2-amino-3-bromoquinolin-7-yl)oxy)methyl)-5-(4-amino-7H-pyrrolo[2,3-d]pyrimidin-7-yl)-3-methyltetrahydrofuran-3,4-diol] | 0.5 nM | 1 nM | 
4 | CSC[C@H]1O[C@@H](n2ccc3c(N)ncnc32)[C@H](O)[C@]1(C)O [Example 17, (2S,3S,4R,5R)-5-(4-amino-7H-pyrrolo[2,3-d]pyrimidin-7-yl)-3-methyl-2-((methylthio)methyl)tetrahydrofuran-3,4-diol] | 900 nM | 1000 nM | 200000 nM
5 | C[C@@]1(O)[C@@H](COc2cccc(CN)c2)O[C@@H](n2ccc3c(N)ncnc32)[C@@H]1O [Example 22, (2R,3S,4R,5R)-5-(4-amino-7H-pyrrolo[2,3-d]pyrimidin-7-yl)-2-((3-(aminomethyl)phenoxy)methyl)-3-methyltetrahydrofuran-3,4-diol] | 126 nM | 60000 nM | 
6 | C[C@@]1(O)[C@@H]([C@H](O)c2ccc(Cl)cc2)O[C@@H](n2ccc3c(N)ncnc32)[C@@H]1O [Example 26, (2R,3S,4R,5R)-5-(4-amino-7H-pyrrolo[2,3-d]pyrimidin-7-yl)-2-((R)-(4-chlorophenyl)(hydroxy)methyl)-3-methyltetrahydrofuran-3,4-diol] | 4.8 nM | 51.4 nM | 660 nM
7 | C[C@@]1(O)[C@@H](Cc2ccc(Cl)c(Cl)c2)O[C@@H](n2ccc3c(N)ncnc32)[C@@H]1O [Example 50, (2R,3S,4R,5R)-5-(4-amino-7H-pyrrolo[2,3-d]pyrimidin-7-yl)-2-(3,4-dichlorobenzyl)-3-methyltetrahydrofuran-3,4-diol] | 17 nM | 9000 nM | 
8 | Cc1ncnc2c1ccn2[C@@H]1O[C@H](COc2ccc3cc(Br)c(N)nc3c2)[C@@](C)(O)[C@H]1O [Example 55, (2R,3S,4R,5R)-2-(((2-amino-3-bromoquinolin-7-yl)oxy)methyl)-3-methyl-5-(4-methyl-7H-pyrrolo[2,3-d]pyrimidin-7-yl)tetrahydrofuran-3,4-diol] | 0.8 nM | 5.1 nM | 
9 | Cc1cc([C@@H](O)[C@H]2O[C@@H](n3ccc4c(N)ncnc43)[C@H](O)[C@]2(C)O)ccc1Cl [Example 56, (2R,3S,4R,5R)-5-(4-amino-7H-pyrrolo[2,3-d]pyrimidin-7-yl)-2-((R)-(4-chloro-3-methylphenyl)(hydroxy)methyl)-3-methyltetrahydrofuran-3,4-diol] | 68 nM |  | 203 nM
10 | Cc1cc([C@@H](O)[C@H]2O[C@@H](n3ccc4c(C)ncnc43)[C@H](O)[C@]2(C)O)ccc1Cl [Example 57, (2R,3S,4R,5R)-2-((R)-(4-chloro-3-methylphenyl)(hydroxy)methyl)-3-methyl-5-(4-methyl-7H-pyrrolo[2,3-d]pyrimidin-7-yl)tetrahydrofuran-3,4-diol] | 11 nM |  | 913 nM
11 | Cc1ncnc2c1ccn2[C@@H]1O[C@H]([C@H](O)c2ccc(Cl)c(Cl)c2)[C@@](C)(O)[C@H]1O [Example 58, (2R,3S,4R,5R)-2-((R)-(3,4-dichlorophenyl)(hydroxy)methyl)-3-methyl-5-(4-methyl-7H-pyrrolo[2,3-d]pyrimidin-7-yl)tetrahydrofuran-3,4-diol] | 11 nM | 3160 nM | 10000 nM
12 | Cc1ncnc2c1ccn2[C@@H]1O[C@H]([C@H](O)c2ccc(C(F)(F)F)cc2)[C@@](C)(O)[C@H]1O [Example 62, (2R,3S,4R,5R)-2-((R)-hydroxy(4-(trifluoromethyl)phenyl)methyl)-3-methyl-5-(4-methyl-7H-pyrrolo[2,3-d]pyrimidin-7-yl)tetrahydrofuran-3,4-diol] | 7 nM | 415 nM | 
13 | C[C@@]1(O)[C@@H]([C@H](O)c2ccc(F)c(C(F)(F)F)c2)O[C@@H](n2ccc3c(N)ncnc32)[C@@H]1O [Example 63, (2R,3S,4R,5R)-5-(4-amino-7H-pyrrolo[2,3-d]pyrimidin-7-yl)-2-((R)-(4-fluoro-3-(trifluoro-methyl)phenyl)(hydroxy)methyl)-3-methyltetrahydrofuran-3,4-diol] | 3 nM | 71 nM | 231 nM
14 | Cc1ncnc2c1ccn2[C@@H]1O[C@H](COc2ccn3c(C)cnc3c2)[C@@](C)(O)[C@H]1O [Example 67, (2R,3S,4R,5R)-3-methyl-5-(4-methyl-7H-pyrrolo[2,3-d]pyrimidin-7-yl)-2-(((3-methylimidazo[1,2-a]pyridin-7-yl)oxy)methyl)tetrahydrofuran-3,4-diol] | 1 nM | 46 nM | 
